Patent publication US20210330611A1, “THERAPY FOR NEUROLOGICAL DISEASES/DISORDERS” (priority 2020, published 2021)
Like-named read-outs stand apart in the source and are kept apart here.

Experiments:
[1] = test system: fibrin-induced microglia activation; assay: Image-based assay of fibrin-induced microglia activation (HTS and dose response); format: cell-based, rat; details: for inhibition at 10 µM: Rattus norvegicus, Microglia, read-out: Fibrin % inhibition
[2] = test system: fibrin- and LPS-induced microglia activation; assay: cells; format: cell-based, rat
primary rat microglia [3] = assay: Cell toxicity (dead cells, size <150 μm2) in coated fibrin (cFib) assay;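 also: share of dead cells sized under 150 µm2 at 10 µM in fibrin-stimulated microglia HTS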
[4] = test system: LPS-induced microglia activation; assay: Image-based assay of LPS-induced microglia activation (HTS and dose response); format: cell-based, rat; details: for inhibition at 10 µM: Rattus norvegicus, Microglia, read-out: LPS % inhibition
primary rat microglia [5] = assay: Cell toxicity (dead cells, size <150 μm2) in LPS assay
[6] = primary HTS, 10 μM, fibrin-stimulated primary microglia
[7] = primary HTS, 10 μM, fibrin assay, dead cells size <150 μm2
[8] = primary HTS, 10 μM, LPS-stimulated primary microglia
[9] = primary HTS, 10 μM, LPS assay, dead cells size <150 μm2
[10] = primary microglia HTS, 10 μM, fibrin-stimulated, cell size >800 μm^2 as marker of activation
[11] = HTS of 1907 compounds, quadrant by fibrin and LPS inhibition
[12] = primary microglia HTS, 10 μM, fibrin assay, cell size <150 μm^2 as marker of toxicity
[13] = primary microglia HTS, 10 μM, LPS-stimulated, cell size >800 μm^2 as marker of activation
[14] = primary microglia HTS, 10 μM, LPS assay, cell size <150 μm^2 as marker of toxicity
[15] = primary microglia HTS, fibrin stimulation, activation = cell size >800 μm2
[16] = quadrant by fibrin and LPS inhibition in HTS of 1907 compounds
[17] = primary microglia HTS, fibrin stimulation, toxicity = cell size <150 μm2
[18] = 48 h, primary microglia HTS, LPS stimulation, activation = cell size >800 μm2
[19] = primary microglia HTS, LPS stimulation, toxicity = cell size <150 μm2
[20] = primary microglia HTS, fibrin stimulation, increased cell size (>800 μm^2) as marker of activation
[21] = primary microglia HTS, fibrin stimulation, decreased size (<150 μm^2) as marker of toxicity
[22] = primary microglia HTS, LPS stimulation, decreased size (<150 μm^2) as marker of toxicity

| Structure (SMILES) | Quadrant (FIG. 5b) ([2]; primary HTS, 10 μM) | Fibrin % cell toxicity (primary rat microglia [3]; [7]) | LPS % cell toxicity (primary rat microglia [5]; [9]) | inhibition at 10 µM [1, 10] | Quadrant (FIG. 5b) [2, 11] | Fibrin % cell toxicity (primary rat microglia [3]; [12]) | inhibition at 10 µM [4, 13] | LPS % cell toxicity (primary rat microglia [5]; [14]) | Quadrant (FIG. 5b) [2, 16] | also measured |
| --- | --- | --- | --- | --- | --- | --- | --- | --- | --- | --- |
| Cc1ccc(S(=O)(=O)[N-]Cl)cc1.[Na+] [Chloramine-t] | Q4 | 1% | 0% | – | – | – | – | – | – | Fibrin % inhibition [1, 6]: 4%; LPS % inhibition [4, 8]: 11% |
| CCCCCCCCCCCCCCCC[N+](C)(C)CCN(Cc1ccc(OC)cc1)c1ncccn1 [Thonzonium Bromide] | – | – | – | -1% | Q4 | 0% | 19% | 1% | – | – |
| CC1=C(C(=O)O)N2C(=O)[C@@H](NC(=O)[C@H](N)C3=CCC=CC3)[C@H]2SC1 [Cephradine] | Q4 | 0% | 0% | – | – | – | – | – | – | inhibition at 10 µM [1, 6]: -26%; inhibition at 10 µM [4, 8]: -1% |
| CO[C@@]1(NC(=O)C(C(=O)O)c2ccc(O)cc2)C(=O)N2C(C(=O)O)=C(CSc3nnnn3C)CO[C@@H]21 (stereo partly drawn) [Latamoxef] | – | – | – | – | – | – | – | – | Q4 | inhibition at 10 µM [1, 15]: -18%; Fibrin % cell toxicity (primary rat microglia [3]; [17]): 1%; inhibition at 10 µM [4, 18]: 22%; LPS % cell toxicity (primary rat microglia [5]; [19]): 0% |
| CCCCC1(COC(=O)CCC(=O)O)C(=O)N(c2ccccc2)N(c2ccccc2)C1=O [Suxibuzone] | – | – | – | 25% | Q4 | 1% | 23% | 0% | – | – |
| CN(C)C(=O)Oc1cccc([N+](C)(C)C)c1 [Neostigmine] | – | – | – | – | – | – | – | – | Q4 | inhibition at 10 µM [1, 20]: -15%; Fibrin % cell toxicity (primary rat microglia [3]; [21]): 0%; inhibition at 10 µM ([4]; 48 h, primary microglia HTS, LPS stimulation, increased cell size (>800 μm^2) as marker of activation): 15%; LPS % cell toxicity (primary rat microglia [5]; [22]): 0% |
| NC(=O)c1cc([N+](=O)[O-])cc([N+](=O)[O-])c1 [Nitromide] | – | – | – | – | – | – | – | – | Q4 | Fibrin % inhibition [1, 20]: −7%; Fibrin % cell toxicity (primary rat microglia [3]; [21]): 0%; LPS % inhibition ([4]; primary microglia HTS, LPS stimulation, increased cell size (>800 μm^2) as marker of activation): 11%; LPS % cell toxicity (primary rat microglia [5]; [22]): 0% |
| CNC1(c2ccccc2Cl)CCCCC1=O (stereo not drawn) [Ketamine] | – | – | – | – | – | – | – | – | Q4 | inhibition at 10 µM [1, 15]: -86%; Fibrin % cell toxicity (primary rat microglia [3]; [17]): 1%; inhibition at 10 µM [4, 18]: -2%; LPS % cell toxicity (primary rat microglia [5]; [19]): 0% |
| CCCCOC(=O)c1ccc(O)cc1 [Butylparaben] | Q4 | 1% | 0% | – | – | – | – | – | – | inhibition at 10 µM [1, 6]: -16%; inhibition at 10 µM [4, 8]: 20% |
| Nc1ccc(S(=O)(=O)Nc2ccc(Cl)nn2)cc1 [Sulfachlorpyridazine] | – | – | – | 18% | Q4 | 1% | 14% | 0% | – | – |
| CN(C)[C@@H]1C(O)=C(C(N)=O)C(=O)[C@@]2(O)C(O)=C3C(=O)c4c(O)ccc(Cl)c4[C@@](C)(O)[C@H]3C[C@@H]12 [Chlortetracycline] | Q4 | 1% | 0% | – | – | – | – | – | – | inhibition at 10 µM [1, 6]: -15%; inhibition at 10 µM [4, 8]: -6% |
| CC(=O)Nc1ccc(S(=O)(=O)Nc2ccc([N+](=O)[O-])cc2)cc1 [Sulfanitran] | – | – | – | 10% | Q4 | 1% | 18% | 0% | – | – |
| N#Cc1ccc2[nH]cc(CCCCN3CCN(c4ccc5oc(C(N)=O)cc5c4)CC3)c2c1 [Vilazodone] | – | – | – | 1% | Q4 | 1% | 27% | 1% | – | – |
| CC(=O)N(CC(O)CO)c1c(I)c(C(=O)NCCO)c(I)c(C(=O)NCC(O)CO)c1I (stereo not drawn) [Ioxilan] | – | – | – | – | – | – | – | – | Q4 | inhibition at 10 µM [1, 15]: 7%; Fibrin % cell toxicity (primary rat microglia [3]; [17]): 0%; inhibition at 10 µM [4, 18]: 8%; LPS % cell toxicity (primary rat microglia [5]; [19]): 0% |
| C=C[C@H]1CN2CC[C@H]1C[C@H]2[C@H](O)c1ccnc2ccccc12 [Cinchonidine] | Q4 | 1% | 0% | – | – | – | – | – | – | inhibition at 10 µM [1, 6]: 13%; inhibition at 10 µM [4, 8]: 4% |
